The values below come from patent US20240239767A1 (AstraZeneca AB, priority 2022, published 2024).

Each structure is given as a SMILES string.

One experiment concerns the target PCSK9 (Homo sapiens, UniProt Q8NBP7, G670E/V474I). Kind of experiment: biochemical.
Experiment [1] deals with GSK3b (Glycogen synthase kinase-3 beta) (Homo sapiens, UniProt P49841). The experiment can be described thus: Assay 6 - GSK3b assay (ThermoFisher, FRET Z-Lyte). Type of experiment: biochemical. The note with it: geometric mean; ATP Conc: 10.000 μM; read-out: Assay 6 (GSK3B FRET-Z-Lyte CR) GMean IC50 (μM) ATP Conc: 10.000. How it is done: This assay measures the activity of the compounds at GSK3b (Glycogen synthase kinase-3 beta).
Sequence of GSK3b (Glycogen synthase kinase-3 beta) (P49841 whole entry): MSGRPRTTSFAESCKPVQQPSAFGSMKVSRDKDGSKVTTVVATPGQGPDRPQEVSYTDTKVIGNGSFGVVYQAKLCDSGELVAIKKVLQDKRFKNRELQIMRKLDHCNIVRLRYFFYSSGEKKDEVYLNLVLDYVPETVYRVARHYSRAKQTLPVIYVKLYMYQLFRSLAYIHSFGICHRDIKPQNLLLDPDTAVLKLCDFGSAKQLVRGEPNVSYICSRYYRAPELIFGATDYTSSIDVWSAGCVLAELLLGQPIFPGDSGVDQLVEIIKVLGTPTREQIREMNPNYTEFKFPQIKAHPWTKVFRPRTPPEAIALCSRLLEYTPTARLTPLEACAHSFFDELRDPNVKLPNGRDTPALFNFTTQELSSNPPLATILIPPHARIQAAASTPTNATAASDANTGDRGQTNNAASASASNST
The test compounds were screened in 1% DMSO (final) in the well. For 10-point titrations, 3-fold serial dilutions are conducted from the starting concentration of 10 μM.
• Bar-coded Corning, low volume NBS, black 384-well plate • 1. 2.5 μL—4× Test Compound or 100 nL 100× plus 2.4 μL kinase buffer • 2. 5 μL—2× Peptide/Kinase Mixture • 3. 2.5 μL—4× ATP Solution • 4. 30-second plate shake • 5. 60-minute Kinase Reaction incubation at room temperature • 6. 5 μL—Development Reagent Solution • 7. 30-second plate shake • 8. 60-minute Development Reaction incubation at room temperature • 9. Read on fluorescence plate reader and analyse the data
In step 2, the 2× GSK3β (GSK3 beta)/Ser/Thr (Glycogen synthase kinase-3 beta/Serine/Threonine) 09 mixture is prepared in 50 mM HEPES (4-(2-hydroxyethyl)-1-piperazineethanesulfonic acid) pH 7.5, 0.01% BRIJ-35, 10 mM MgCl2, 1 mM EGTA (egtazic acid). The final 10 μL Kinase Reaction consists of 0.22-0.92 ng GSK3β (GSK3 beta) and 2 μM Ser/Thr 09 in 50 mM HEPES pH 7.5, 0.01% BRIJ-35, 10 mM MgCl2, 1 mM EGTA.
In step 3 the ATP Solution is diluted to a 4× working concentration in Kinase Buffer (50 mM HEPES pH 7.5, 0.01% BRIJ-35, 10 mM MgCl2, 1 mM EGTA).
In Step 6 the Development Reagent is diluted 1:512 in Development Buffer (10× Novel PKC Lipid Mix: 2 mg/mL Phosphatidyl Serine, 0.2 mg/mL DAG in 20 mM HEPES, pH 7.4, 0.3% CHAPS).
SelectScreen® Kinase Profiling Service uses XLfit from IDBS. The dose response curve is curve fit to model number 205 (sigmoidal dose-response model).

For experiment [2], the target named is T1, potassium ion channel hERG (human Ether-á-go-go-Related Gene) (Homo sapiens, UniProt Q12809).
T1 construct: expressed in transfected cells; host or cells: Chinese hamster ovary K1 (CHO)
T1 sequence (Q12809 whole entry): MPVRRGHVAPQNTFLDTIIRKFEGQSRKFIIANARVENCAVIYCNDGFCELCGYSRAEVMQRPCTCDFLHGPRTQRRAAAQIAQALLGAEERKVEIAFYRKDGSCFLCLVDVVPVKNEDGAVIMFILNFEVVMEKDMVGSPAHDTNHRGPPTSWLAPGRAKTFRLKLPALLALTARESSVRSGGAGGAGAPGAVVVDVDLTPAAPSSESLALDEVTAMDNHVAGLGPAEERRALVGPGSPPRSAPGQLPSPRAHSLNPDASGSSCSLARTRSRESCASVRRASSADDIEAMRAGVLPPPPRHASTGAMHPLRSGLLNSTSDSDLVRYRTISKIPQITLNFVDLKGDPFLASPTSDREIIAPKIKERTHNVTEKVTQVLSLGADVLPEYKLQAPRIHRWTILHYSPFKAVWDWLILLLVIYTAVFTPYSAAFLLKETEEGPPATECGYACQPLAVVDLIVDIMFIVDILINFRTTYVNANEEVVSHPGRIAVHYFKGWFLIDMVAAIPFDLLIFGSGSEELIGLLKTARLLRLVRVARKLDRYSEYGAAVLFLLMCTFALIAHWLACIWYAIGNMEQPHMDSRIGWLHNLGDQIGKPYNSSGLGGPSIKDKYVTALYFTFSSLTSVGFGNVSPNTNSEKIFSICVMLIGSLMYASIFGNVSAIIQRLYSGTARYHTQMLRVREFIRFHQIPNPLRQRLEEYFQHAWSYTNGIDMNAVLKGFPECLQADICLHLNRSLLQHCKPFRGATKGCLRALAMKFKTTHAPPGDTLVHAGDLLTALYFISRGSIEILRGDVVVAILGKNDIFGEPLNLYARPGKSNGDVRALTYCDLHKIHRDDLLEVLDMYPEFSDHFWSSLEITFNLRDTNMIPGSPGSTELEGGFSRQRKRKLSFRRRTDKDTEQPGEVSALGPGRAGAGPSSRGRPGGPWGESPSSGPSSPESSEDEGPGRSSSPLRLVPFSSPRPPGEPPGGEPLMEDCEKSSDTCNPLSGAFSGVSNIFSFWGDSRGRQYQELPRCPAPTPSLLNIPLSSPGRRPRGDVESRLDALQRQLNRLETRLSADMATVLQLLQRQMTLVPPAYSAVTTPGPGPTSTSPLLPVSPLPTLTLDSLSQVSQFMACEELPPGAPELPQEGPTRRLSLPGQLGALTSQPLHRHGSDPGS
The experiment can be described thus: Assay 5 - hERG assay (SyncroPatch 384PE patch clamp, CHO cells). The note with it: geometric mean, CHO cells over-expressing hERG, read-out: Assay 5 (hERG Hu CHO IF EPh CR-Syncro) GMean IC50. It counts as cell-based. How it is done: Assay 5—hERG Assay (Human Ether-á-go-go-Related Gene)
This assay (human Ether-á-go-go-Related Gene) measures activity of the compounds at the potassium ion channel hERG (human Ether-á-go-go-Related Gene).
Experiments were performed on the SyncroPatch 384PE high throughput patch clamp platform at room temperature and medium resistance chips with 4 patch holes per site. Chinese hamster ovary K1 (CHO) cell lines over-expressing the ion channel of choice (hERG) were used in assay-ready format and kept in liquid nitrogen or were used from live culture. Cells were either thawed and diluted in HBSS or were detached from flasks and resuspended in HBSS. HBSS comprised 140 mM NaCl, 4 mM KCl, 10 mM HEPES and 5 mM Glucose (pH 7.4). The internal patch clamp solution was KF 120 mM, KCl 20 mM, HEPES 10 mM, EGTA 10 mM, and 25 μM Escin (pH 7.2). After the sealing process was complete, the external solution was exchanged for external patch clamp solution comprising NaCl 80 mM, KCl 4 mM, HEPES 10 mM, CaCl2 2 mM, MgCl2 1 mM, glucose 5 mM, and NMDG 60 mM (pH 7.4). All solutions were stored at room temperature, except Escin, which was stored at 4° C. All test compounds were dispensed in greiner-bio 384 well plates and tested in a 6 point cumulative assay (final DMSO concentration 0.33%). Only wells that passed previously agreed acceptance criteria for this platform were used in this analysis (30 MegaOhm seal resistance, Z prime>0.4 and current size>0.2 nA).
For orientation: hERG is a cardiac potassium channel; its block is linked to QT prolongation.

Sequence of PCSK9 (Q8NBP7 with tags, fused parts or gaps V474I/G670E): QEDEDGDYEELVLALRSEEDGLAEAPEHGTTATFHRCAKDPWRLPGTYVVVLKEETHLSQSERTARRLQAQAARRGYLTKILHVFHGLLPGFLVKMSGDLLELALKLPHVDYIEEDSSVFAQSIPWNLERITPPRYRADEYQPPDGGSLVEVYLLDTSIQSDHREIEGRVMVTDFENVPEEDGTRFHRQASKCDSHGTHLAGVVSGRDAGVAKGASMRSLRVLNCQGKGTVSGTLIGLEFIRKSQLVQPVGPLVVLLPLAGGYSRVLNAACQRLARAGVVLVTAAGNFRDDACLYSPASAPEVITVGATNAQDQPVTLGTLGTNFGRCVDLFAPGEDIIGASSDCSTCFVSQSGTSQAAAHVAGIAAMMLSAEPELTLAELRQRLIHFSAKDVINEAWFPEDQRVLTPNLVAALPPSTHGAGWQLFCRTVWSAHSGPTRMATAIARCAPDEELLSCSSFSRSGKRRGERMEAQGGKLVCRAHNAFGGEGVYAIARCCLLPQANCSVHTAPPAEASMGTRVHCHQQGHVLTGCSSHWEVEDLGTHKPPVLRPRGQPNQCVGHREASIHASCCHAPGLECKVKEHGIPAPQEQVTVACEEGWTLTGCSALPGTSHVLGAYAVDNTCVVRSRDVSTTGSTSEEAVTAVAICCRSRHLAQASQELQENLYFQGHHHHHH

A word on the IC50: it is the midpoint of a concentration-inhibition curve. Consider `O=c1ccccn1-c1ccc(N[C@H]2CC[C@H](Nc3nc4ccc(Br)cc4s3)C2)nc1` [Example 6, 6′-(((1S,3S)-3-((6-Bromobenzo[d]thiazol-2-yl)amino)cyclopentyl)amino)-2H-[1,3′-bipyridin]-2-one], for which the IC50 was 2730 nM against PCSK9, greater than 10 µM in experiment [1] and 2640 nM in experiment [2].
The corresponding values for `O=c1ccccn1-c1ccc(N[C@H]2CC[C@H](Nc3nc4cc(CO)cnc4s3)C2)nc1` [Compound 88] are 9.9 nM, greater than 10 µM and greater than 40100 nM.
In the case of `Fc1cccc(F)c1-c1ccc(N[C@H]2CC[C@H](Nc3nc4cccnc4[nH]3)C2)nc1` [Example 68, (1S,3S)—N^1-(5-(2,6-Difluorophenyl)pyridin-2-yl)-N^3-(3H-imidazo[4,5-b]pyridin-2-yl)cyclopentane-1,3-diamine], the IC50 in experiment [1] is greater than 10 µM; in experiment [2] it was 6550 nM.
As to `Cc1ncc(-c2ccc(=O)n(-c3ccc(N[C@H]4CC[C@H](Nc5nc6cccnc6[nH]5)C4)nc3)c2)cn1` [Example 53, 6′-(((1S,3S)-3-((3H-Imidazo[4,5-b]pyridin-2-yl)amino)cyclopentyl)amino)-5-(2-methylpyrimidin-5-yl)-2H-[1,3′-bipyridin]-2-one], the IC50 was 19 nM against PCSK9, 3.86 µM in experiment [1] and greater than 40000 nM in experiment [2].
With `Fc1cccc(OC(F)(F)F)c1-c1ccc(N[C@H]2CC[C@H](Nc3nc4cccnc4[nH]3)C2)nc1` [Example 70, (1S,3S)—N^1-(5-(2-Fluoro-6-(trifluoromethoxy)phenyl)pyridin-2-yl)-N^3-(3H-imidazo[4,5-b]pyridin-2-yl)cyclopentane-1,3-diamine], the IC50 against PCSK9 is 24.4 nM; in experiment [1], greater than 10 µM.
For the molecule `Fc1cccc(OC(F)F)c1-c1ccc(N[C@H]2CC[C@H](Nc3nc4cccnc4[nH]3)C2)nc1` [Example 32, (1S,3S)—N^1-(5-(2-(Difluoromethoxy)-6-fluorophenyl)pyridin-2-yl)-N^3-(3H-imidazo[4,5-b]pyridin-2-yl)cyclopentane-1,3-diamine], the IC50 against PCSK9 was 21 nM; in experiment [1], greater than 10 µM; in experiment [2] it was 2220 nM.
For `Fc1cccnc1-c1ccc(N[C@H]2CC[C@H](Nc3nc4cccnc4[nH]3)C2)nc1` [Example 30, (1S,3S)—N^1-(3-Fluoro-[2,3′-bipyridin]-6′-yl)-N^3-(3H-imidazo[4,5-b]pyridin-2-yl)cyclopentane-1,3-diamine], the IC50 was 34.5 nM at PCSK9, greater than 10 µM in experiment [1] and 3150 nM in experiment [2].
For `O=C1CN(c2ccc(N[C@H]3CC[C@H](Nc4nc5cccnc5[nH]4)C3)nc2)C(=O)N1` [Example 65, 1-(6-(((1S,3S)-3-((3H-Imidazo[4,5-b]pyridin-2-yl)amino)cyclopentyl)amino)pyridin-3-yl)imidazolidine-2,4-dione], the IC50 was 7.8 nM at PCSK9, 8.19 µM in experiment [1] and greater than 40000 nM in experiment [2].
On to `Cn1c(=O)n(-c2ccc(N[C@H]3CC[C@H](Nc4nc5cccnc5[nH]4)C3)nc2)c2ncccc21` [Example 45, 3-(6-(((1S,3S)-3-((3H-Imidazo[4,5-b]pyridin-2-yl)amino)cyclopentyl)amino)pyridin-3-yl)-1-methyl-1,3-dihydro-2H-imidazo[4,5-b]pyridin-2-one], for which the results for the IC50 in experiment [1] and in experiment [2] were greater than 10 µM and greater than 40000 nM, respectively.
Consider `O=c1ccccn1-c1ccc(N[C@H]2CC[C@H](Nc3nc4ccccc4s3)C2)nc1` [Example 7, 6′-(((1S,3S)-3-(Benzo[d]thiazol-2-ylamino)cyclopentyl)amino)-2H-[1,3′-bipyridin]-2-one], for which the values for the IC50 (against PCSK9; in experiment [1]; in experiment [2]) were 324 nM, greater than 10 µM and 12600 nM, respectively.
In turn, `O=c1ccccn1-c1ccc(N[C@H]2CC[C@H](Nc3nc4ccc(OC(F)F)cc4o3)C2)nc1` [Example 85, 6′-(((1S,3S)-3-((6-(Difluoromethoxy)benzo[d]oxazol-2-yl)amino)cyclopentyl)amino)-2H-[1,3′-bipyridin]-2-one] gave an IC50 against PCSK9 of 14.6 nM.
Turning to `O=c1cccnn1-c1cnc(N[C@H]2CC[C@H](Nc3nc4cccnc4[nH]3)C2)nc1` [Example 31, 2-(2-(((1S,3S)-3-((3H-Imidazo[4,5-b]pyridin-2-yl)amino)cyclopentyl)amino)pyrimidin-5-yl)pyridazin-3(2H)-one], the IC50 is 25.1 nM at PCSK9, greater than 10 µM in experiment [1] and greater than 40100 nM in experiment [2].
For `O=c1ccccn1-c1ccc(N[C@H]2CC[C@H](Nc3nc4cccnc4[nH]3)C2)cc1` [Example 74, 1-(4-(((1S,3S)-3-((3H-Imidazo[4,5-b]pyridin-2-yl)amino)cyclopentyl)amino)phenyl)pyridin-2(1H)-one], in that order: 173 nM, greater than 10 µM and greater than 40000 nM.
Regarding `O=c1ccccn1-c1ccc(N[C@H]2CC[C@H](Nc3nc4ccc(Br)cc4o3)C2)nc1` [Example 3, 6′-(((1S,3S)-3-((6-Bromobenzo[d]oxazol-2-yl)amino)cyclopentyl)amino)-2H-[1,3′-bipyridin]-2-one], the results for the IC50 (at PCSK9; in experiment [1]; in experiment [2]) were 8.2 nM, greater than 10 µM and 4200 nM, respectively.
The corresponding values for `Fc1ccccc1-c1ccc(N[C@H]2CC[C@H](Nc3nc4cccnc4[nH]3)C2)nc1` [Example 69, (1S,3S)—N^1-(5-(2-Fluorophenyl)pyridin-2-yl)-N^3-(3H-imidazo[4,5-b]pyridin-2-yl)cyclopentane-1,3-diamine] are 83 nM, greater than 10 µM and 1170 nM.
Consider `COc1ccnc2[nH]c(N[C@H]3CC[C@H](Nc4ccc(-n5ccccc5=O)cn4)C3)nc12` [Example 27, 6′-(((1S,3S)-3-((7-Methoxy-3H-imidazo[4,5-b]pyridin-2-yl)amino)cyclopentyl)amino)-2H-[1,3′-bipyridin]-2-one], for which the half-inhibitory concentration (IC50) against PCSK9 was 49 nM; in experiment [1], 2.49 µM; in experiment [2] it was greater than 40000 nM.
For `O=c1ccccn1-c1ccc(N[C@H]2CC[C@H](Nc3nc4cc(C5CC5)cnc4[nH]3)C2)nc1` [Example 55, 6′-(((1S,3S)-3-((6-Cyclopropyl-3H-imidazo[4,5-b]pyridin-2-yl)amino)cyclopentyl)amino)-2H-[1,3′-bipyridin]-2-one], in that order: 2.6 nM, 1.77 µM and greater than 40000 nM.
The corresponding values for `Cn1cccc(-c2cnc(N[C@H]3CC[C@H](Nc4nc5cccnc5[nH]4)C3)cn2)c1=O` [Example 75, 3-(5-(((1S,3S)-3-((3H-Imidazo[4,5-b]pyridin-2-yl)amino)cyclopentyl)amino)pyrazin-2-yl)-1-methylpyridin-2(1H)-one] are 16.8 nM, greater than 10 µM and greater than 40000 nM.
On to `CP(C)(=O)c1cnc2[nH]c(N[C@H]3CC[C@H](Nc4ccc(-n5ccccc5=O)cn4)C3)nc2c1` [Example 58, 6′-(((1S,3S)-3-((6-(Dimethylphosphoryl)-3H-imidazo[4,5-b]pyridin-2-yl)amino)cyclopentyl)amino)-2H-[1,3′-bipyridin]-2-one], for which the values for the IC50 (against PCSK9; in experiment [2]) were 220 nM and greater than 40000 nM, respectively.
Regarding `O=c1ccc2ccccc2n1-c1ccc(N[C@H]2CC[C@H](Nc3nc4cccnc4[nH]3)C2)nc1` [Example 33, 1-(6-(((1S,3S)-3-((3H-Imidazo[4,5-b]pyridin-2-yl)amino)cyclopentyl)amino)pyridin-3-yl)quinolin-2(1H)-one], the IC50 in experiment [1] is greater than 10 µM; in experiment [2] it was greater than 40000 nM.
